US20240279191A1, “SMALL MOLECULE INHIBITORS OF TEAD-YAP” (The General Hospital Corporation, priority 2021, published 2024)

Columns and labels:
[1] = test system: Mouse hepatic progenitor organoids; assay: Organoids viability; type: cell-based; details: 40 nM
Procedure: Mouse hepatic progenitor organoids (70932, […] Tech) were seeded in 96 well plate using 20 ul Matrigel (Corning, #354230) and cultured in HepatiCult™ Organoid Growth Medium (06031, […] Tech) with or without TM2. Medium was replaced after every 48 h with fresh compound. Organoid viability was measured by PrestoBlue™ HS Cell Viability Reagent (ThermoFisher, #P50200) following the manufacturer's protocol.

[2] = test system: YAP/TAZ-TEAD direct target genes; assay: RNA-seq analysis in H226 cells; type: cell-based, Human; details: 1 μM TM2, versus K975 in H226 xenograft tumors (GSE156912), FIG. 7
Procedure: The NCI-H226 cells were treated with TM2 at 1 μM for 24 hours. Total RNA was isolated with RNeasy Mini Kit (74104, Qiagen). The integrity of isolated RNA was analyzed using Bioanalyzer (Agilent Technologies). and the RNA-seq libraries were made by Novogene. All libraries have at least 50 million reads sequenced (150 bp paired-end). The heatmaps were generated using different expressed genes from TM2 treatment in NCI-H226 cells with Motpheus (https://software.broadinstitute.org/morpheus/). Principle component analysis (PCA) was determined by PCA function in M3C package in R. Gene Set Enrichment Analysis (GSEA) was performed using GSEA software from Broad Institute (http://software.broadinstitute.org/gsea/index.jsp). The YAP_TAZ-TEAD Direct Target Genes set were generated with the published YAP/TAZ-TEAD target genes (Zanconato et al., 2015).

DHODH(H) = DHODH(H) (Homo sapiens, UniProt Q02127); assay: DHODH(H) (Table F1); details: three values in one cell
DHODH(H), sequence (Q02127 whole entry): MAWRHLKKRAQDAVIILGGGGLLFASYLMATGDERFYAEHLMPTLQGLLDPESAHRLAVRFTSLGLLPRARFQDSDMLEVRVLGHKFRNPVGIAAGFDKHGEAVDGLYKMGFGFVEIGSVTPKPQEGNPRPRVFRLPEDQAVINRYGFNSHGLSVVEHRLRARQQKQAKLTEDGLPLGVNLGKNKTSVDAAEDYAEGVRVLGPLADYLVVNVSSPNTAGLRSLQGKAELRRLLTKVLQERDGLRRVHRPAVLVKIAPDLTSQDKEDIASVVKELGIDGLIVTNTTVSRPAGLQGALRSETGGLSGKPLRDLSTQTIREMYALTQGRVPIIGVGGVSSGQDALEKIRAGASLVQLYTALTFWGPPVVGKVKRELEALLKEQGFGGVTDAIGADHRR

DLD1 cells = assay: Drug combination matrix TM2 + Trametinib, DLD1; type: cell-based, Human; details: 5 doses TM2 x 9 doses trametinib, day 5, Bliss, FIG. 8E
Procedure: (§1) The drug combination experiments were preformed using a drug combination matrix across 5 doses of TM2 (5 μM, 3-fold dilution) and 9 doses of Trametinib (10 μM, 3-fold dilution) in different tumor cell lines. Cell viability was determined at day 5 after the drugs administration by MTT. Drug synergy score was calculated followed Bliss rule. Synergy Score and Plot was generated by “Synergyfinder” package in R language.

logD 7.4 = details: pH 7.4
NCI-H28 cells = assay: Cell proliferation assay (MTT), NCI-H28; details: Homo sapiens, NCI-H28, read-out: IC50 NCI-H28 cell proliferation
[3] = test system: Mouse hepatic progenitor organoids; assay: Immunofluorescence staining of Ki67 in organoids; type: cell-based; details: 40 nM, 3D culture
Procedure: Organoids were plated in 8 well chamber slide and fixed in 4% paraformaldehyde at 4° C. for 1h. After permeabilization in 0.5% PBST, organoids were blocked with 2% BSA for 2 h and incubated with primary antibody overnight at […]. Imaging was performed on Nikon A1RHD25 confocal microscope.

HCT116 cells = assay: Drug combination matrix TM2 + Trametinib, HCT116; type: cell-based, Human; details: 5 doses TM2 x 9 doses trametinib, day 5, Bliss, FIG. 10
Procedure: as §1

O=C(Nc1ccccc1)N1CCN(C(=O)c2cccc(OCCC3CCCCC3)c2)CC1 [TM2, 4-(3-(2-cyclohexylethoxy)benzoyl)-N-phenylpiperazine-1-carboxamide]
disruption of organoids growth [1]: more than 85%
block of YAP/TAZ-TEAD direct target genes (in words) [2]: more efficient to block YAP/TAZ-TEAD target genes relative to K975
DHODH(H):(GI50 μM/1,10 μM) (DHODH(H)): 5/6/15
combination with MEK inhibitor trametinib, DLD1 (in words) (DLD1 cells): strong inhibitory effects and substantial synergy
logD (logD 7.4): 4.6
IC50 (NCI-H28 cells): > 5 µM
Ki67 positive cells in organoids (in words) [3]: significantly diminished
combination with MEK inhibitor trametinib, HCT116 (in words) (HCT116 cells): strong inhibitory effects and substantial synergy
